Assay results published in patent US8222260B2, “Substituted 6-anilinopurine derivatives as inhibitors of cytokinin oxidase/dehydrogenase and preparations containing these derivatives” (Univerzita Palackego V Olomouci, priority 2007, dated 2012).

Key:
recombinant AtCKX2 = target: T1, recombinant AtCKX2 (Arabidopsis thaliana, UniProt Q9FUJ3); assay: Inhibition of cytokinin oxidase/dehydrogenase activity (PMS/MTT microtitre plate assay); format: biochemical; conditions: 30 μM iP as substrate, pH 7.4, 37° C.; means of three replicates; read-out: IC50, inhibition of recombinant AtCKX2
T1 sequence (Q9FUJ3 23-501): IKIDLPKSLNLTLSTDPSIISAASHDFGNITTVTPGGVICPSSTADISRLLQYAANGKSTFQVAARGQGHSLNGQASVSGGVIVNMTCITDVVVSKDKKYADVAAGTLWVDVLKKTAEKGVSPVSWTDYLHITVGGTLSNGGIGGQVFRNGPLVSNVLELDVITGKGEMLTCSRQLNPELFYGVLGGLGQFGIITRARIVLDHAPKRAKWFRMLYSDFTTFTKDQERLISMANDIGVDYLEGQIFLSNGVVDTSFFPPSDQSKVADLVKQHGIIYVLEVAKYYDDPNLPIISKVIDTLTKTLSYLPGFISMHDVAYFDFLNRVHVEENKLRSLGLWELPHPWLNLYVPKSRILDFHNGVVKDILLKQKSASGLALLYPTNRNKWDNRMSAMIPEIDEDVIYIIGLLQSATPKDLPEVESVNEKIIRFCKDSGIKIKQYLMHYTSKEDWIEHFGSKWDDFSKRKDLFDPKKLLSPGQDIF
Summary of the method: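 Cell-free culture medium of S. cerevisiae 23344c expressing AtCKX2 was incubated with compound (3×10^−7–3×10^−4 M) and 30 μM iP in 0.1 M KH2PO4 pH 7.4 with 1 mM MTT/0.2 mM PMS, 30 min, 37 °C, dark. A578 was read after acetic-acid stop, minus no-iP blank. IC50 came from dose-response curves, mean of three replicates.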

AHK3 = target: T2, AHK3 (Arabidopsis thaliana, UniProt Q9C5U1); assay: Activation of cytokinin receptors (E. coli KMI001 beta-galactosidase reporter); format: cell-based; conditions: 28 h incubation; n.a. means no activation
T2 sequence (Q9C5U1 1-1036): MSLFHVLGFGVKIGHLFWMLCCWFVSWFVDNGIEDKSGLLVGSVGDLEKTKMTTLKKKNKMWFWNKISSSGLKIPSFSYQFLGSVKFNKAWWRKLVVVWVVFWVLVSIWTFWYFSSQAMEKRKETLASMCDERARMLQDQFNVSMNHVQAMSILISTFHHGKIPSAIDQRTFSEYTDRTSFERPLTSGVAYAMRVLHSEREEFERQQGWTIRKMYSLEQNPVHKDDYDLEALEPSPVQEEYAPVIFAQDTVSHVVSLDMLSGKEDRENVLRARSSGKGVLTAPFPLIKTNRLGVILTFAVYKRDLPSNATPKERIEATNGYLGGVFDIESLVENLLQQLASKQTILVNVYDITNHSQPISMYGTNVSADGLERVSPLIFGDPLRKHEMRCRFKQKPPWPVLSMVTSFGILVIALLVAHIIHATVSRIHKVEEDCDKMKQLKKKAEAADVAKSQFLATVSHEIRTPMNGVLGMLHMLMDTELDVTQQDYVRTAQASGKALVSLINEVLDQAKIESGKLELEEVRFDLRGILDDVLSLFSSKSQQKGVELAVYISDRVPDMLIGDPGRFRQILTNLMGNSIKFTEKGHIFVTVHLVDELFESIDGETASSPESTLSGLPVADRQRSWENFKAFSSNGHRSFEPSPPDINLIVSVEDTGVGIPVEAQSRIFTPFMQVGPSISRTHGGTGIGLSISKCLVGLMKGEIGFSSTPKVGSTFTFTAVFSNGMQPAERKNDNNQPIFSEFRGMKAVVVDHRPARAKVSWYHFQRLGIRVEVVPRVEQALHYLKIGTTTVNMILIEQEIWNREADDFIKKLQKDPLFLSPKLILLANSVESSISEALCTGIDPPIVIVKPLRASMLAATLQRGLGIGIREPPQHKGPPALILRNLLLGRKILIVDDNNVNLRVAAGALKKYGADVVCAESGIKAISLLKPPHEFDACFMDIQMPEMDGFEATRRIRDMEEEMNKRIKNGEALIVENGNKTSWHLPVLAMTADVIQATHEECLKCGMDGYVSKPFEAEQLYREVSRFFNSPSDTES
Summary of the method: (§1)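 E. coli KMI001 carrying the receptor plasmid was grown in M9 + 0.1% casamino acids at 25 °C, diluted 1:600 and treated with compound (stock solutions 10^-7–5×10^-5 M). Supernatant β-galactosidase was read by 4-methylumbelliferyl galactoside hydrolysis (1 h, 37 °C, Na2CO3 stop). EC50 came from dose-response curves, triplicate means.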

CRE1/AHK4 = CRE1/AHK4 (Arabidopsis thaliana, UniProt Q9C5U0); assay: as above; format: cell-based; conditions: 17 h incubation; n.a. means no activation
Sequence of CRE1/AHK4 (Q9C5U0 whole entry): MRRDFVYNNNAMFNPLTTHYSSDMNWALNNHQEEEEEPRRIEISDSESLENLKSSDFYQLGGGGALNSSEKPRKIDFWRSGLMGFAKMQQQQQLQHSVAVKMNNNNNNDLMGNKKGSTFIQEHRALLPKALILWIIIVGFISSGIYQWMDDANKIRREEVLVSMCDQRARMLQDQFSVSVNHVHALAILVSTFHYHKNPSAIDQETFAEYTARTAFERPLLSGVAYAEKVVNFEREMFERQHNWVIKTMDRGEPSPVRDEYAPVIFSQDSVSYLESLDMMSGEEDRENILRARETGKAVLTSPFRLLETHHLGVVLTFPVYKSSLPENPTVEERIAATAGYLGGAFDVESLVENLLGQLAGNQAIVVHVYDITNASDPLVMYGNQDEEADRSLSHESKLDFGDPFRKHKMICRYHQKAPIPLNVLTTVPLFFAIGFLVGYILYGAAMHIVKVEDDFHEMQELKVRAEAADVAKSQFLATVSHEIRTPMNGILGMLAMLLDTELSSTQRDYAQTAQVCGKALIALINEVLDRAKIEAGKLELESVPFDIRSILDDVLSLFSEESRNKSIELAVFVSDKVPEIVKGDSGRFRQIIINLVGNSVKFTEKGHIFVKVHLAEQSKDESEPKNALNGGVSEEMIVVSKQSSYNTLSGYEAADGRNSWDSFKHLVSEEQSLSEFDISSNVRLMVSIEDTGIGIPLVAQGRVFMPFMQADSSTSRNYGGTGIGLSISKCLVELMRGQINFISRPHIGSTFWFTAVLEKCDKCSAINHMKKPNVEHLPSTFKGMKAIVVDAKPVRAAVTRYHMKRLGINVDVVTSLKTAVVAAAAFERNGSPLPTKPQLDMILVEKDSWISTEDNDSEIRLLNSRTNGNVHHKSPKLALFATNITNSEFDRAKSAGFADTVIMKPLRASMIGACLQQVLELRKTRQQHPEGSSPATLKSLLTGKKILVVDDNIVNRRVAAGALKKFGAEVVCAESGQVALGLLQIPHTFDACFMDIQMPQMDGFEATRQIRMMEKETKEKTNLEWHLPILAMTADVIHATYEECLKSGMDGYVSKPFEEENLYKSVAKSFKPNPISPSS
Summary of the method: as §1

IC50 (recombinant AtCKX2) [µM]	EC50 (AHK3) [µM]	EC50 (CRE1/AHK4) [µM]	Structure (SMILES)
22.6			Clc1nc(Nc2ccccc2)c2[nH]cnc2n1 [Compound 1, 2-Chloro-6-anilinopurine]
6.3	20	7.5	Clc1cccc(Nc2nc(Cl)nc3nc[nH]c23)c1 [Compound 3, 2-Chloro-6-(3-chloroanilino)purine]
24.1			Clc1ccc(Nc2nc(Cl)nc3[nH]cnc23)cc1 [Compound 4]
12.2			Fc1cccc(Nc2nc(Cl)nc3nc[nH]c23)c1 [Compound 6, 2-Chloro-6-(3-fluoroanilino)purine]
3.5	2.8	37.1	Oc1cccc(Nc2nc(Cl)nc3nc[nH]c23)c1 [Compound 9, 2-Chloro-6-(3-hydroxyanilino)purine]
0.8	9.5	31.3	COc1cccc(Nc2nc(Cl)nc3nc[nH]c23)c1 [Compound 12, 2-Chloro-6-(3-methoxyanilino)purine]
	19	46.2	Fc1nc(Nc2ccccc2)c2nc[nH]c2n1 [Compound 40]
15.3	31.6	21	Fc1nc(Nc2cccc(Cl)c2)c2nc[nH]c2n1 [Compound 42]
11.8	15	49.6	Oc1cccc(Nc2nc(F)nc3[nH]cnc23)c1 [Compound 48]
0.4	22.7	43	COc1cccc(Nc2nc(F)nc3nc[nH]c23)c1 [Compound 51, 2-Fluoro-6-(3-methoxyanilino)purine]
	7.7	> 50	Nc1nc(Nc2cccc(O)c2)c2nc[nH]c2n1 [Compound 72]
22.6	> 50		Fc1cccc(Nc2nc(S)nc3[nH]cnc23)c1 [Compound 83]

Structure (SMILES)	IC50 (recombinant AtCKX2) [µM]	EC50 (AHK3) [µM]	EC50 (CRE1/AHK4) [µM]
Nc1nc(Nc2cccc(Cl)c2)c2nc[nH]c2n1 [Compound 66]	25.6	43	
